The record followed here is patent US11834463B2, “High affinity macrocyclic FKB51-inhibitors for treatment of psychiatric disorders” (priority 2020, dated 2023).

Test in data set [1]: not given
This is another data set of the same source.

The target of data set [2] is T1, FKBP51FK1 (Homo sapiens, UniProt Q13451).
T1 sequence (Q13451 42-130 limits assumed): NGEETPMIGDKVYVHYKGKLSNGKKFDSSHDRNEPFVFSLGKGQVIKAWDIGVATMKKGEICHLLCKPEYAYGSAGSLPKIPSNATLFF
The experiment in a line: biochemical. How it is done: All macrocyclic compounds were tested in a competitive fluorescence polarization assay for binding towards FKBP51 as well as the homologs FKBP12, FKBP12.6 and FKBP52 (Table 1).
Example 8: […] of the Macrocyclic FKBP51 Ligands by SPPS

Several values for one entry are separate records, joined by “and”; a condition that tells them apart may be missing. Identical values can stand only once. Like-named read-outs stand apart in the source and are kept apart here.

As to `COc1ccc(CC[C@@H]2OC(=O)[C@H]3CCCCN3C(=O)[C@@H](C3CCCCC3)c3cc(OC)c(OC)c(c3)OCCCOCC=CCOc3cccc2c3)cc1OC`, the ring closure, yield after HPLC (from C=CCOCCCOc1cc([C@@H](C(=O)N2CCCC[C@@H]2C(=O)O[C@@H](CCc2ccc(OC)c(OC)c2)c2cccc(OCC=C)c2)C2CCCCC2)cc(OC)c1OC, rcm bond, 23-membered ring, Grubbs II (0.1 equiv)/1,4-benzoquinone, DCM, 1.0 mM) was 58% and 33%.

Turning to `COc1ccc(CC[C@H]2OC(=O)[C@@H]3CCCCN3C(=O)[C@@H](C3CCCCC3)NC(=O)C(C)(C)NC(=O)COc3cc(O)cc2c3)cc1OC` [Compound 103, (2R,5S,12R)-12-cyclohexyl-2-[2-(3,4-dimethoxyphenyl)ethyl]-22-hydroxy-15,15-dimethyl-3,19-dioxa-10,13,16-triazatricyclo[18.3.1.0^5,10]tetracosa-1(24),20,22-triene-4,11,14,17-tetrone], the ring closure, isolated yield in data set [1] (from H-Aib-dChg-Pip-[O-(R)-CH(CH2CH2-3,4-dimethoxyphenyl)-C6H3(O-resin)-OCH2CO]-OH?, amide bond, 17-membered ring, resin, with chain assembly) was 20%. For the same compound, in data set [2], the “affinity (in words)” value is on record as “bound similarly to the glycine derivative 83”. The inhibition constant Ki in data set [2] (FKBP51FK1 Ki [μM], Table 2, [a] standard error from three, [c] error from two independent measurements) was determined as 0.37 µM.

Consider `COc1ccc(CC[C@@H]2OC(=O)[C@H]3CCCCN3C(=O)[C@@H](C3CCCCC3)c3cc(OC)c(OC)c(c3)OCCCOc3cccc2c3)cc1OC`, for which the ring closure, yield after HPLC (from COc1ccc(CC[C@H](OC(=O)[C@H]2CCCCN2C(=O)[C@H](c2cc(OC)c(OC)c(OCCCI)c2)C2CCCCC2)c2cccc(O)c2)cc1OC, ether bond, 18-membered ring, K2CO3 (2 equiv), MeCN, 0.3 mM) came to 26%.

As to `COc1ccc(CC[C@@H]2OC(=O)[C@H]3CCCCN3C(=O)[C@@H](C3CCCCC3)c3cc(OC)c(c(OC)c3)OCCCOc3cccc2c3)cc1OC`, in data set [1] (from COc1ccc(CC[C@H](OC(=O)[C@H]2CCCCN2C(=O)[C@H](c2cc(OC)c(OCCCI)c(OC)c2)C2CCCCC2)c2cccc(O)c2)cc1OC, ether bond, 19-membered ring, K2CO3 (2 equiv), MeCN, 0.5 mM), the ring closure, isolated yield worked out at 81%.

With `COc1ccc(CC[C@H]2OC(=O)[C@@H]3CCCCN3C(=O)[C@@H](C3CCCCC3)C/C=C/COCCOc3cccc2c3)cc1OC`, the ring closure, isolated yield in data set [1] (from C=CCOCCOc1cccc([C@H](CCc2ccc(OC)c(OC)c2)OC(=O)[C@H]2CCCCN2C(=O)[C@H](CC=C)C2CCCCC2)c1, rcm bond, 18-membered ring, Grubbs II (0.1 eq), DCM, 0.5 mM, 30.0 °C, 2.5 h) was determined as 92%.

Take `COc1ccc(CC[C@@H]2OC(=O)[C@H]3CCCCN3C(=O)[C@@H](C3CCCCC3)c3cc(OC)c(OC)c(c3)OCCOc3cccc2c3)cc1OC`: the ring closure, yield after HPLC (from COc1ccc(CC[C@H](OC(=O)[C@H]2CCCCN2C(=O)[C@H](c2cc(OC)c(OC)c(OCCI)c2)C2CCCCC2)c2cccc(O)c2)cc1OC, ether bond, 17-membered ring, K2CO3 (2 equiv), MeCN, 1.0 mM) came out at 42%.

What is called Ki is a measure of affinity in units of concentration, obtained from inhibition or displacement. Read a high Ki as weaker binding.
